Experimental findings from ChEMBL document CHEMBL5149962, “Targeting KRAS mutant cancers by preventing signaling transduction in the MAPK pathway” (Eur J Med Chem, 2021) are described below.

Series [1] in a line: Inhibition of mammalian GGTase-1 expressed in Sf9 cells using wildtype His-tagged RAS-CVLL as substrate assessed as inhibition of substrate plasma membrane localisation. The class given is cell membranes, Mammalia.
Series [2] is described as follows: Competitive binding of mammalian GGTase-1 expressed in Sf9 cells assessed as inhibition of 3H-GGPP binding to RAS using Ras-CVLL as substrate incubated for 10 mins. Also noted: species or system Mammalia.
The test system of series [3] is NIH3T3. The series is described as follows: Antitumor activity against mouse NIH3T3 cells transfected with H-Ras CVLS xenografted nude mouse assessed as inhibition of tumor growth at 70 mg/kg, ip administered once daily relative to control. In kind it is functional. Also noted: scale not given: the % may be the effect or the level left.
Series [4] deals with NIH3T3. The series is described as follows: Antitumor activity against mouse NIH3T3 cells transfected with KRAS4B xenografted nude mouse assessed as inhibition of tumor growth at 35 mg/kg, ip administered in the presence of FTI-276 relative to control. Also noted: scale not given: the % may be the effect or the level left. In kind it is functional.
Series [5] deals with Calu-1. In words: Antitumor activity against human Calu-1 cells transfected with KRAS mutant xenografted nude mouse assessed as inhibition of tumor growth at 70 mg/kg, ip administrated once daily measure for 40 to 80 days relative to control. The class given is functional. Also noted: scale not given: the % may be the effect or the level left. Particulars: time 40-80 day.
Series [6] concerns PANC-1. The series is described as follows: Cytotoxicity against human PANC-1 cells harboring KRAS G12D mutant assessed as reduction in cell viability measured after 48 hrs by MTT assay. The class given is functional, cell-based. Particulars: PANC-1, 48 h.
The subject of series [7] is NCI-H460. The series is described as follows: Cytotoxicity against human NCI-H460 cells harboring KRAS […] mutant assessed as reduction in cell viability measured after 48 hrs by MTT assay. Particulars: NCI-H460, 48 h. The class given is functional, cell-based.
Series [8] has as its system MDA-MB-231. The series is described as follows: Cytotoxicity against human MDA-MB-231 cells harboring KRAS G13D mutant assessed as reduction in cell viability measured after 48 hrs by MTT assay. In kind it is functional, cell-based. Particulars: MDA-MB-231, 48 h.
The subject of series [9] is MIA PaCa-2. The series is described as follows: Cytotoxicity against human MIA PaCa-2 cells harboring KRAS G12C mutant assessed as reduction in cell viability measured after 48 hrs by MTT assay. In kind it is functional, cell-based. Particulars: MIA PaCa-2, 48 h.
For series [10], the system named is SW-620. In words: Cytotoxicity against human SW-620 cells harboring KRAS G12V mutant assessed as reduction in cell viability measured after 48 hrs by MTT assay. In kind it is functional.
For series [11], the system named is HCT-116. In words: Cytotoxicity against human HCT-116 cells harboring KRAS G13D mutant assessed as reduction in cell viability measured after 48 hrs by MTT assay. Particulars: HCT-116, 48 h. The class given is functional, cell-based.
Series [12] deals with A549. The series is described as follows: Antitumor activity against human A549 cells xenografted in athymic nude mouse assessed as reduction in tumour volume at 10 mg/kg, ip administered once daily measured after 24 days relative to control. The class given is functional. Also noted: scale not given: the % may be the effect or the level left. Particulars: time 24 day.
In series [13] the test system is HT-29. In words: Antiproliferative activity against human HT-29 cells assessed as reduction in cell growth at 100 uM measured after 7 days relative to control. The class given is functional. Also noted: scale not given: the % may be the effect or the level left. Particulars: time 7 day.
Series [14] in a line: Reduction in KRAS-GTP mutant level in tumor of human PANC-1 cells xenografted nude mouse at 40 mg/kg, po administered daily for 10 days by immunoblot analysis relative to control. Particulars: time 10 day. Also noted: scale not given: the % may be the effect or the level left. The class given is functional.
Series [15] has as its system A549. In words: Antitumor activity against human A549 cells xenografted in athymic nude mice assessed as inhibition of tumor growth at 50 mg/kg, po administered daily measured after 16 days relative to control. Particulars: time 16 day. Also noted: scale not given: the % may be the effect or the level left. In kind it is functional.
A short description of series [16]: Reduction in phosphor-ERK mutant level in tumor of human PANC-1 cells xenografted nude mouse at 40 mg/kg, po administered daily for 10 days by immunoblot analysis relative to control. In kind it is functional. Also noted: scale not given: the % may be the effect or the level left. Particulars: time 10 day.
A short description of series [17]: Reduction in KRAS mutant level in tumor of human PANC-1 cells xenografted nude mouse at 40 mg/kg, po administered daily for 10 days by immunoblot analysis relative to control. Also noted: scale not given: the % may be the effect or the level left. The class given is functional. Particulars: time 10 day.
Series [18] concerns Rat1. The series is described as follows: Inhibition of cell growth in rat Rat1 cells transfected with HRAS. The class given is functional, cell-based.
A short description of series [19]: Toxicity in nude mouse xenografted with human PANC-1 cells assessed as reduction in body weight at 40 mg/kg, po administered daily for 10 days relative to control. The class given is organism-based. Also noted: scale not given: the % may be the effect or the level left. Particulars: in vivo, 240 h, time 10 day.
For series [20], the system named is SK-MES-1. The series is described as follows: Antitumor activity against human SK-MES-1 HTB-58 cells xenografted in athymic nude mouse assessed as reduction in tumour volume at 10 mg/kg, ip administered once daily measured after 24 days. In kind it is functional. Particulars: time 24 day.

Consider `CSCCc1c(-c2cccnc2)nn(-c2ccc(Cl)c(Cl)c2)c1OCCCC(=O)N[C@@H](Cc1ccccc1)C(N)=O`, for which the IC50 in [1] was 2 µM. Besides, in series [2], the Ki came to 0.0008 µM.

`CC(C)C[C@H](NC(=O)c1ccc(NC[C@@H](N)CS)cc1-c1cccc2ccccc12)C(=O)O`: the figures for the Activity in series [3], in series [4] and in series [5] were 40%, 65% and 60%, respectively.

`CCCc1c(OCCCCCOc2coc(CO)cc2=O)ccc(Cl)c1Cl`: the 50% inhibitory concentration (IC50) in [6] is 17.3 µM; in [7], 15 µM; in series [8] it was 7 µM; in series [9] it was 10.2 µM; in series [10] it was 37.1 µM; in series [11], 8 µM.

As to `CC(C)=CCC/C(C)=C/CC/C(C)=C/CSc1ccccc1C(=O)O` [SALIRASIB], the Activity in [12] came to 53.8%; in series [13], 85%; in series [14] it was 64%; in [15] it was 53.7%; in series [16] it was 84%; in series [17], 50%. Further, the Activity in series [19] is given as 67%; in series [20], 0.03 cm3. Also, it took 7.5 µM to reach a half-maximal effect in [18] (EC50).
